Laboratory results reported in patent publication US7767842B2, “Class of γδ T cells activators and use thereof” (Innate Pharma SA, priority 2002, dated 2010).
Read-outs that look alike come from different tables or passages of the source.

Legend:
[1] = tested on: primary polyclonal human Vγ9Vδ2 T cells; assay: Cytokine release assay: TNFα release from γδ T cells; assay type: cell-based
Procedure: Cells (primary polyclonal human Vγ9Vδ2 T cells which have been expanded in vitro and stored frozen at day 12-15 of expansion) are thawed and rinsed twice and centrifuged. Upon elimination of supernatant and resuspension of cells, the cells are incubated for 24 h at 37° C. in the presence of IL2 100 IU/ml (final concentration). The cells are washed and centrifuged, following which the supernatant is eliminated and the cells are resuspended and adjusted to the adequate final concentration. The cells are added to the wells of a 96-well plate.
To one row of wells is added a standard dilution series of […] (BrHPP). Compounds to be tested, in this case (E)-4-hydroxy-3-methyl-2-butenyl pyrophosphate (HDMAPP) and the N-HDMAPP compound of the invention are added to experimental wells, after several dilutions.
Full plates are incubated 24 hours at 37° C. for stimulation of the γδ cells with the test compound and reference compounds, in this case N-HDMAPP, BrHPP and HDMAPP, as further described below. After this time, 100 μl of culture supernatant is taken for TNFα dosage. Measurement of the released TNFα dosage is performed as described by the manufacturer's instruction in the TNFα enzyme immunoassay kit (ref. 11121, Immunotech—Beckman Coulter). OD at 405 nm is read, the OD being proportional to the concentration of released TNFα in the culture supernatant. The data are processed with the Excel software to compare concentration of test compound versus concentration of TNFα and for the calculation of the EC50 for each test compound.
The bioactivity of the compound N-HDMAPP was assessed using a TNFα release assay as described above. Compounds BrHPP and HDMAPP were included for purpose of comparison. […] As will be appreciated, any other suitable assays such as cell amplification may be used in assessing compounds.

γδ T cells = conditions: at best; Wilhelm et al., 2003; cited from earlier work
[2] = 24 hours stimulation at 37° C., TNFα enzyme immunoassay, relative screening test, read-out: in vitro EC50, TNFα release

CC(O)(CBr)CCOP(=O)(O)OP(=O)(O)O (stereo not drawn) [BrHPP, 3-(bromomethyl)-3-butanol-1-yl-diphosphate] showed an EC50 ([1]; Homo sapiens, T-cell, prior assays, calibrated cells, read-out: EC50 in prior assays with calibrated cells using a BrHPP-standard composition) of roughly 15 nM.

Work on C/C(=C\COP(=O)(O)OP(=O)(O)O)CO [HDMAPP, (E)-4-hydroxy-3-methyl-2-butenyl pyrophosphate] yielded an EC50 [1, 2] of 2.1 nM.

For NCCC(O)(P(=O)(O)O)P(=O)(O)O [pamidronate], the “increase in γδ T cell count” value (γδ T cells) is listed as no more than 2 fold.

For “(E)-4-hydroxy-3-methylbut-2-enyl pyrophosphoramidate [N-HDMAPP]”, the EC50 [1, 2] was 0.63 nM, the “maximum TNFα release” value ([1]; maximum level, FIG. 1) was “over 1800 pg/ml” and the “increased potency over the most potent compounds tested so far” value ([1]; ratio of EC50, TNFα release) was 3-4.
